The values below come from patent publication US9902722B2, “Biaryl kinase inhibitors” (BRISTOL-MYERS SQUIBB COMPANY, priority 2014, dated 2018).

Molecules are shown by their SMILES.

In the experiment the target is GST-Xa-hAAK1 (Homo sapiens (Human), UniProt Q2M2I8). Briefly: AAK1 Kinase Assay.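 Further: each compound tested across an eleven-point concentration series, with IC50 obtained through non-linear regression fitting.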 Type of experiment: biochemical. Conditions: bacterially expressed GST-Xa-hAAK1 3.5 nM; ATP 22 μM; peptide substrate 1.5 μM; 3 hours at room temperature; Caliper LabChip 3000.
Chain of GST-Xa-hAAK1 (Q2M2I8 whole entry): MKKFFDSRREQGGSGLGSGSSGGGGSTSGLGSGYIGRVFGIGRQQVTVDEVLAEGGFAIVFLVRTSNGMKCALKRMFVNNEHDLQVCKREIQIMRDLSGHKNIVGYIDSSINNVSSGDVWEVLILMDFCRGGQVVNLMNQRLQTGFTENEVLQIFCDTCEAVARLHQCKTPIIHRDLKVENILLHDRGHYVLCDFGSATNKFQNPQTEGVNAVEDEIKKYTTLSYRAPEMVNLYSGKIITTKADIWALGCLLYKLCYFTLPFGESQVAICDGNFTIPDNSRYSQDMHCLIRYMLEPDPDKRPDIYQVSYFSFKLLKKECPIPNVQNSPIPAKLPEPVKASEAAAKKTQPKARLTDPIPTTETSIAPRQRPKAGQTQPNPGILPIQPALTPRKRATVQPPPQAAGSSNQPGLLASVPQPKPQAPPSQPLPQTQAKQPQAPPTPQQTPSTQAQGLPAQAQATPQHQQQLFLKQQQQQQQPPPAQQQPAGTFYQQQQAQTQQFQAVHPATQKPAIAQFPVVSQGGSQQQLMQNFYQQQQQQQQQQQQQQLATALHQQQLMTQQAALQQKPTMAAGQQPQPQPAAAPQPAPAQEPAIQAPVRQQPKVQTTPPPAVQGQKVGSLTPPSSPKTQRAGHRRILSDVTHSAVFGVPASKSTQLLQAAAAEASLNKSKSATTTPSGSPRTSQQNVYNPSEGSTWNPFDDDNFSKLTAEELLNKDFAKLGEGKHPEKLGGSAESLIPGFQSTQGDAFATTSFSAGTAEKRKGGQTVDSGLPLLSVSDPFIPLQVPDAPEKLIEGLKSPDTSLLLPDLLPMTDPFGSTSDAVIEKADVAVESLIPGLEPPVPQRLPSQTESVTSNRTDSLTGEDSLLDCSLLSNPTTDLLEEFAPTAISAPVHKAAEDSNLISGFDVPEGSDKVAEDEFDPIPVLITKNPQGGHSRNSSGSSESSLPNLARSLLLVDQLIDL

Description: The assays were performed in U-bottom 384-well plates. […] The reactions were initiated by the combination of bacterially expressed, GST-Xa-hAAK1 with substrates and test compounds. The reactions were incubated at room temperature for 3 hours and terminated by adding 60 μl of 35 mM EDTA buffer to each sample. […] Compounds were dissolved at 10 mM in dimethylsulfoxide (DMSO) and evaluated at eleven concentrations. IC50 values were derived by non-linear regression analysis.

A word on the IC50: it is the point on the concentration scale where inhibition reaches its midpoint. Read a low IC50 as higher potency. The molecule `CC(C)C[C@](C)(N)COc1ncc(-c2ccnc(Cl)c2)cc1C(F)F` [Example 193, (S)-1-((2′-chloro-5-(difluoromethyl)-[3,4′-bipyridin]-6-yl)oxy)-2,4-dimethylpentan-2-amine] returned a 50% inhibitory concentration (IC50) of 2.9 nM.

`Cc1cc(-c2cnc(OC[C@@](C)(N)CC(C)C)c(C(F)F)c2)ccn1` [Example 194, (S)-1-((5-(difluoromethyl)-2′-methyl-[3,4′-bipyridin]-6-yl)oxy)-2,4-dimethylpentan-2-amine] came in with a half-inhibitory concentration (IC50) of 1.5 nM.

In turn, `COC(=O)Nc1cc(-c2cnc(OC[C@@](C)(N)CC(C)C)c(C(F)F)c2)ccn1` [Example 196, (S)-methyl (6-((2-amino-2,4-dimethylpentyl)oxy)-5-(difluoromethyl)-[3,4′-bipyridin]-2′-yl)carbamate] displayed an IC50 of 0.2 nM.

Take `CC(C)C[C@](C)(N)COc1ncc(-c2ccnc3cc(Cl)ccc23)cc1C(F)F` [Example 197, (S)-1-((5-(7-chloroquinolin-4-yl)-3-(difluoromethyl)pyridin-2-yl)oxy)-2,4-dimethylpentan-2-amine]: the midpoint of inhibition, the IC50, lay at 0.31 nM.

As to `CC(C)C[C@](C)(N)COc1ncc(-c2ccnc3ccc(F)cc23)cc1C(F)F` [Example 200, (S)-1-((3-(difluoromethyl)-5-(6-fluoroquinolin-4-yl)pyridin-2-yl)oxy)-2,4-dimethylpentan-2-amine], the half-inhibitory concentration (IC50) was 1.2 nM.

`CC(C)C[C@](C)(N)COc1ncc(-c2ccnc3ccccc23)cc1C(F)F` [Example 204, (S)-1-((3-(difluoromethyl)-5-(quinolin-4-yl)pyridin-2-yl)oxy)-2,4-dimethylpentan-2-amine]: the IC50 amounted to 0.23 nM.

Consider `Cc1ccc2c(-c3cnc(OC[C@@](C)(N)CC(C)C)c(C(F)F)c3)ccnc2c1` [Example 205, (S)-1-((3-(difluoromethyl)-5-(7-methylquinolin-4-yl)pyridin-2-yl)oxy)-2,4-dimethylpentan-2-amine], for which 0.7 nM corresponded to half-maximal inhibition (IC50).

Molecule `COC(=O)Nc1cc(-c2cc(OC)c(OC[C@@](C)(N)CC(C)C)cn2)ccn1` [Example 206, (S)-methyl (5-((2-amino-2,4-dimethylpentyl)oxy)-4-methoxy-[2,4′-bipyridin]-2′-yl)carbamate] had a concentration for half-maximal inhibition (IC50) of 4.3 nM.

Molecule `COc1cc(-c2ccnc(C(F)F)c2)ncc1OC[C@@](C)(N)CC(C)C` [Example 207, (S)-1-((2′-(difluoromethyl)-4-methoxy-[2,4′-bipyridin]-5-yl)oxy)-2,4-dimethylpentan-2-amine] displayed a concentration for half-maximal inhibition (IC50) of 19 nM.

For the molecule `COC(=O)Nc1cc(-c2ccc(OC[C@@](C)(N)CC(C)C)c3ccccc23)ccn1` [Example 208, (S)-methyl (4-(4-((2-amino-2,4-dimethylpentyl)oxy)naphthalen-1-yl)pyridin-2-yl)carbamate], the midpoint of inhibition, the IC50, lay at 4.6 nM.

With `CC(C)C[C@](C)(N)COc1ccc(-c2ccnc3ccccc23)c2ccccc12` [Example 209, (S)-2,4-dimethyl-1-((4-(quinolin-4-yl)naphthalen-1-yl)oxy)pentan-2-amine], the IC50 was 21 nM.

As for `COC(=O)Nc1cc(-c2ncc(OC[C@@](C)(N)CC(C)C)cn2)ccn1` [Example 210, (S)-methyl (4-(5-((2-amino-2,4-dimethylpentyl)oxy)pyrimidin-2-yl)pyridin-2-yl)carbamate], the half-maximal inhibitory concentration (IC50) came out at 79 nM.

For `COC(=O)Nc1cc(-c2cnc(OC[C@@](C)(N)CC(C)C)nc2)ccn1` [Example 211, (S)-methyl (4-(2-((2-amino-2,4-dimethylpentyl)oxy)pyrimidin-5-yl)pyridin-2-yl)carbamate], half-maximal inhibition (IC50) required 491 nM.

For `Cc1cc(-c2cc(C)c(OC[C@@](C)(N)CC(C)C)c(C)n2)ccn1` [Example 212, (S)-2,4-dimethyl-1-((2′,4,6-trimethyl-[2,4′-bipyridin]-5-yl)oxy)pentan-2-amine], half-maximal inhibition (IC50) was put at 1020 nM.

In the case of `COC(=O)Nc1cc(-c2cc(C)c(OC[C@@](C)(N)CC(C)C)c(C)n2)ccn1` [Example 213, (S)-methyl (5-((2-amino-2,4-dimethylpentyl)oxy)-4,6-dimethyl-[2,4′-bipyridin]-2′-yl)carbamate], the half-maximal inhibitory concentration (IC50) was 22 nM.

The molecule `CC(C)C[C@](C)(N)COc1ccc(-c2ncnc3ccccc23)cc1C(F)(F)F` [Example 214, (S)-2,4-dimethyl-1-(4-(quinazolin-4-yl)-2-(trifluoromethyl)phenoxy)pentan-2-amine] had an IC50 of 0.86 nM.

The molecule `CC(C)C[C@](C)(N)COc1ccc(C2=CCOCC2)cc1C(F)(F)F` [Example 215, (S)-1-(4-(3,6-dihydro-2H-pyran-4-yl)-2-(trifluoromethyl)phenoxy)-2,4-dimethylpentan-2-amine] yielded an IC50 of 197 nM.

On to `Cc1cc(-c2ccc(OC[C@@](C)(N)CC(C)C)c(C(F)(F)F)c2)c2ccccc2n1` [Example 216, (S)-2,4-dimethyl-1-(4-(2-methylquinolin-4-yl)-2-(trifluoromethyl)phenoxy)pentan-2-amine], for which the IC50 was found to be 25 nM.

Regarding `CC(C)C[C@](C)(N)COc1ncc(-c2ccnc3cc(F)cc(F)c23)cc1C(F)(F)F` [Example 218, (S)-1-((5-(5,7-difluoroquinolin-4-yl)-3-(trifluoromethyl)pyridin-2-yl)oxy)-2,4-dimethylpentan-2-amine], the concentration for half-maximal inhibition (IC50) was 1 nM.

The molecule `CC(C)C[C@](C)(N)COc1ncc(-c2ccnc3ccccc23)cc1C(F)(F)F` [Example 219, (S)-2,4-dimethyl-1-((5-(quinolin-4-yl)-3-(trifluoromethyl)pyridin-2-yl)oxy)pentan-2-amine] yielded an IC50 of 0.59 nM.

In turn, `COC(=O)Nc1cc(-c2cnc(OC[C@@](C)(N)CC(C)C)c(C(F)(F)F)c2)ccn1` [Example 220, (S)-methyl (6-((2-amino-2,4-dimethylpentyl)oxy)-5-(trifluoromethyl)-[3,4′-bipyridin]-2′-yl)carbamate] returned an IC50 of 0.38 nM.

Take `Cc1cc(-c2cnc(OC[C@@](C)(N)CC(C)C)c(C(F)(F)F)c2)ccn1` [Example 221, (S)-2,4-dimethyl-1-((2′-methyl-5-(trifluoromethyl)-[3,4′-bipyridin]-6-yl)oxy)pentan-2-amine]: the IC50 was 4.1 nM.

For the molecule `Cc1cc(-c2ccnc3ccc(F)cc23)cnc1OC[C@@](C)(N)CC(C)C` [Example 223, (S)-1-((5-(6-fluoroquinolin-4-yl)-3-methylpyridin-2-yl)oxy)-2,4-dimethylpentan-2-amine], half-maximal inhibition (IC50) was put at 0.88 nM.

For `Cc1cc(-c2ccnc3cc(F)cc(F)c23)cnc1OC[C@@](C)(N)CC(C)C` [Example 224, (S)-1-((5-(5,7-difluoroquinolin-4-yl)-3-methylpyridin-2-yl)oxy)-2,4-dimethylpentan-2-amine], half-maximal inhibition (IC50) required 1.1 nM.

Regarding `Cc1cc(-c2ccnc3cc(Cl)ccc23)cnc1OC[C@@](C)(N)CC(C)C` [Example 225, (S)-1-((5-(7-chloroquinolin-4-yl)-3-methylpyridin-2-yl)oxy)-2,4-dimethylpentan-2-amine], the IC50 amounted to 0.74 nM.

With `Cc1cc(-c2ccnc3cc(F)cc(F)c23)ncc1OC[C@@](C)(N)CC(C)C` [Example 226, (S)-1-((6-(5,7-difluoroquinolin-4-yl)-4-methylpyridin-3-yl)oxy)-2,4-dimethylpentan-2-amine], the IC50 was 0.93 nM.

Molecule `Cc1cc(-c2ccnc3cc(F)ccc23)ncc1OC[C@@](C)(N)CC(C)C` [Example 227, (S)-1-((6-(7-fluoroquinolin-4-yl)-4-methylpyridin-3-yl)oxy)-2,4-dimethylpentan-2-amine] gave an IC50 of 0.93 nM.
